This is an account of results in patent US20200188466A1, “COMPOSITIONS OF SCHISANDRA EXTRACTS AND METHODS THEREOF” (Reyoung Corporation, priority 2017, published 2020).

The data set is described as follows: in vivo. As to conditions: male, Sprague Dawley, rat, po, 2.4 mg/kg. The arrangement: species or system Sprague Dawley rats. Here is the method: 42 Male Sprague Dawley rats (weight, 220-280 g) were maintained on a 12-hour light/dark cycle with free access to water and lab chow for 10-14 hours prior to the experiment. Rats were randomly divided into 7 groups (n=6/group) and groups 2-7 received 0 mg/kg, 6.0 mg/kg, and 12.0 mg/kg, 24.0 mg/kg, 48.0 mg/kg and 60.0 mg/kg of Schisandrin A in 1% CMC-Na (300-800 cps) via oral administration, respectively. After 5 minutes, all the groups received 2.4 mg/kg of triptolide in a solution of 2% DMSO-98% Sterile Water via oral administration.
After triptolide treatment, blood samples were collected from individual rat at 5 min, 10 min, 15 min, 20 min, 30 min, 45 min, 1 h, 2 h, 4 h, 8 h, and 24 h, respectively. Plasma was separated by centrifugation at 8000 rpm for 6 minutes at 4° C. and kept at −80° C. until analysis. Plasma homogenate was injected into LC-MS/MS for analysis.

Turning to `CC(C)[C@]12O[C@H]1[C@@H]1O[C@]13[C@]1(O[C@H]1C[C@H]1C4=C(CC[C@@]13C)C(=O)OC4)[C@@H]2O` [triptolide], where the note is “AUC0→t of triptolide”, the AUC(0-t) is 31.5 ± 25.4 ng·h/mL. This compound also gave an area under the curve AUC(0-inf) (AUC0→∞ of triptolide) of 31.5 ± 25.4 ng·h/mL. In addition, the Cmax (Cmax of triptolide) was 56.4 ± 25.1 ng/mL. For the same compound, the MRT last (MRT0→t of triptolide) is 25.8 ± 9.6 min. The compound also displayed an MRT inf (MRT0→∞ of triptolide) of 39.6 ± 21 min. Further, where the note is “T1/2 of triptolide”, the half-life was 25.2 ± 13.8 min. The Tmax (Tmax of triptolide) is 9.96 ± 5.4 min.
